Reference: PubChem BioAssay (NCI)
“And” between values parts separate entries of the source, which are not always exact repeats. Equal values may be shown once.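 Results reflect a 48-hour exposure of cells in 96-well plates to compound at five concentrations. Abbreviation: GI50, concentration required for 50% inhibition of growth. TGI: total growth inhibition.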 Where a SMILES comes first, the peptide text is derived from it. [ ]: non-standard residue; d: D form. The star is where a group is joined. Phe(4-NO2) = N[CH](Cc1ccc([N+](=O)[O-])cc1)C(=O)O; Cbz = O=C(OCc1ccccc1)*

What was measured:
Experiment in all cases: NCI-60 cell line screen, 48 h
A498 renal = system: A498 renal
A549 NSCLC = system: A549 NSCLC
CAKI-1 renal = system: CAKI-1 renal
DU-145 prostate = system: DU-145 prostate
HCT-116 colon = system: HCT-116 colon
HCT-15 colon = system: HCT-15 colon
HS 578T breast = system: HS 578T breast
K-562 leukemia = system: K-562 leukemia
MCF7 breast = system: MCF7 breast
SN12C renal = system: SN12C renal
UACC-62 melanoma = system: UACC-62 melanoma
HOP-92 NSCLC = system: HOP-92 NSCLC
TK-10 renal = system: TK-10 renal

SMILES	TGI (A498 renal) [µM]	TGI (A549 NSCLC) [µM]	TGI (CAKI-1 renal) [µM]	TGI (DU-145 prostate) [µM]	TGI (HCT-116 colon) [µM]	TGI (HCT-15 colon)	TGI (HS 578T breast) [µM]	TGI (K-562 leukemia)	TGI (MCF7 breast) [µM]	TGI (SN12C renal) [µM]	TGI (UACC-62 melanoma) [µM]	TGI (HOP-92 NSCLC) [µM]	TGI (TK-10 renal) [µM]	GI50 (A498 renal) [µM]	GI50 (CAKI-1 renal)	GI50 (HCT-116 colon)	GI50 (HCT-15 colon)	GI50 (SN12C renal)	GI50 (TK-10 renal) [µM]	GI50 (UACC-62 melanoma)
O=[N+]([O-])/C(C(Cl)=C(Cl)Cl)=C(\NCc1ccccc1)Sc1ccccc1	62.2	> 100	> 100	> 100	> 100	35 µM	36	> 100 µM	> 100	> 100	> 100	–	–	–	–	–	–	–	–	–
COC(=O)/C=C1/OC(c2ccccc2)=C(Br)C1=O	> 100	–	51.3	> 100	> 100	> 100 µM	–	> 100 µM	> 100	89.2	> 100	> 100	> 100	–	–	–	–	–	–	–
COC(=O)c1ccc(C)cc1C1CN=NC12Cc1c(C)cccc1C2=O (stereo not given)	> 100	> 100	> 100	> 100	> 86.9	> 100 µM	> 100	> 100 µM	–	> 95.6	> 68.7	97	> 100	–	–	–	–	–	–	–
NC(=S)N/N=C1\CCc2ccccc2C1	> 100	> 100	–	> 100	> 100	> 100 µM	–	> 100 µM	> 100	> 100	> 100	> 100	> 100	–	–	–	–	–	–	–
O=C(O)C(Cc1ccc(O)cc1)N=Cc1nc(-c2ccccc2)oc1O (stereo not given)	> 100	> 100	> 100	–	> 100	> 100 µM	–	> 100 µM	–	–	–	> 100	> 100	–	–	–	–	–	–	–
c1ccc(Nc2nnc(-c3ccccc3Nc3ccccc3-c3nnc(Nc4ccccc4)s3)s2)cc1	–	–	–	> 100	> 100	> 100 µM	–	> 100 µM	> 100	–	> 100	> 100	> 100	–	–	–	–	–	–	–
COc1ccc(-n2c(C)nc3ccc(NC4OCC(OC(C)=O)C(OC(C)=O)C4OC(C)=O)cc3c2=O)cc1 (stereo not given)	> 100	–	> 100	> 100	> 100	> 100 µM	> 100	> 100 µM	> 100	> 100	> 100	–	> 100	–	–	–	–	–	–	–
COc1cc(Br)c(/C=N/N=C(\N)NO)cc1OC	78.9	50.2	79	–	43.8	> 100 µM	–	47.3 µM	–	83.2	32.3	90.5	> 100	–	–	–	–	–	–	–
CC(=O)O[C@H]1[C@@H](N2CCCCC2)C[C@H]2[C@@H]3CC=C4C[C@@H](N5CCCC5)CC[C@]4(C)[C@H]3CC[C@@]21C	> 100	> 100	> 100	–	> 100	> 100 µM	> 100	22.5 µM	> 100	> 100	> 100	> 100	> 100	–	–	–	–	–	–	–
Nc1ccc(C(=O)NN2C(=O)C(Cl)C2c2ccc(O)cc2)cc1 (stereo not given)	56.5	> 100	51.3	–	44	50.1 µM	–	49.5 µM	–	36.6	29.1	41.8	> 100	–	–	–	–	–	–	–
CC1(C)COC(c2cccc(C(=O)c3ccccc3)c2)=N1	–	> 100	> 100	> 100	> 100	> 100 µM	–	> 100 µM	> 100	> 100	> 100	> 100	> 100	–	–	–	–	–	–	–
O=C(O)c1cc(-c2ccc3cc(O)c(O)cc3c2)ccc1O	> 12.5	> 12.5	> 12.5	> 12.5	> 12.5	> 12.5 µM	> 12.5	> 12.5 µM	> 12.5	> 12.5	> 12.5	–	> 12.5	–	–	–	–	–	–	–
CC(C)(C)c1cc(C(C)(C)C)c(SSc2c(C(C)(C)C)cc(C(C)(C)C)c(O)c2O)c(O)c1O	27.5	24	23.7	–	23.2	20.7 µM	> 100	26.2 µM	27.5	25.3	18.8	31.9	–	–	–	–	–	–	–	–
COc1ccc(-n2c(C)nc3ccc(NC4OC(COC(C)=O)C(OC(C)=O)C(OC(C)=O)C4OC(C)=O)cc3c2=O)cc1 (stereo not given)	> 100	–	57.3	> 100	46.5	> 100 µM	> 100	79 µM	> 100	> 100	> 100	–	> 100	–	–	–	–	–	–	–
COC(=O)c1c(C)c2c(c(C)c1O)OC(=O)c1c(C)cc(O)c(C=O)c1O2	–	> 100	–	> 100	> 100	> 100 µM	> 100	> 100 µM	> 100	> 100	> 100	> 100	> 100	–	–	–	–	–	–	–
O=C1CSc2ccnc(=O)n21	> 100	> 100	> 100	> 100	> 100	–	> 100	–	> 100	> 100	> 100	> 100	> 100	–	–	–	–	–	–	–
COc1ccccc1NC(=S)Nc1ccccn1	> 100	> 100	> 100	–	> 100	> 100 µM	> 100	> 100 µM	> 100	–	> 100	–	> 100	–	–	–	–	–	–	–
C=Cc1c(-c2ccccc2)cnc2[nH]c3ccccc3c12	> 50	> 50	> 50	–	> 50	> 50 µM	–	> 50 µM	–	> 50	> 50	–	> 50	–	–	–	–	–	–	–
CCOc1ccc(NC(=O)/C=C/c2ccco2)cc1	> 100	> 100	> 100	> 100	> 100	> 100 µM	> 100	> 100 µM	> 100	> 100	> 100	–	> 100	–	–	–	–	–	–	–
COc1cc2c(c(OC)c1OC)[C@@H]1CCCCC[C@@H]1CCC2=O	> 100	> 100	> 100	–	> 100	> 100 µM	–	> 72.5 µM	–	> 100	> 100	> 100	> 100	–	–	–	–	–	–	–

SMILES	TGI (A498 renal) [µM]	TGI (A549 NSCLC) [µM]	TGI (CAKI-1 renal) [µM]	TGI (DU-145 prostate) [µM]	TGI (HCT-116 colon) [µM]	TGI (HCT-15 colon)	TGI (HS 578T breast) [µM]	TGI (K-562 leukemia)	TGI (MCF7 breast) [µM]	TGI (SN12C renal) [µM]	TGI (UACC-62 melanoma) [µM]	TGI (HOP-92 NSCLC) [µM]	TGI (TK-10 renal) [µM]	GI50 (A498 renal) [µM]	GI50 (CAKI-1 renal)	GI50 (HCT-116 colon)	GI50 (HCT-15 colon)	GI50 (SN12C renal)	GI50 (TK-10 renal) [µM]	GI50 (UACC-62 melanoma)
CCOC(=O)C1Cc2ccc(C)cc2C1=O (stereo not given)	–	> 100	> 100	> 100	> 100	> 100 µM	> 100	> 100 µM	> 100	> 100	> 100	> 100	> 100	–	–	–	–	–	–	–
N=c1oc2ccccc2cc1C(=O)Nc1ccccn1	> 100	> 100	> 100	> 100	> 100	> 100 µM	> 100	> 100 µM	–	> 100	> 100	> 100	–	–	–	–	–	–	–	–
CC(=O)NC1=C(NCCO)C(=O)c2ccccc2C1=O	–	> 50	–	–	> 50	> 50 µM	–	> 50 µM	–	> 50	> 50	–	> 50	–	–	–	–	–	–	–
O=C1NCC2(CCN(CC3COc4ccccc4O3)CC2)N1c1ccccc1 (stereo not given)	> 100	> 100	> 100	> 100	> 100	> 100 µM	> 100	> 100 µM	> 100	> 100	> 100	–	> 100	–	–	–	–	–	–	–
O=C(O)CNc1ncc2c(n1)-c1ccccc1OC2	–	> 100	> 100	> 100	> 100	> 100 µM	> 100	> 100 µM	> 100	> 100	> 100	> 100	> 100	–	–	–	–	–	–	–
COc1cccc(C2c3cc4c(cc3OC(N3CCCC3)C2c2ccccc2)OCO4)c1O (stereo not given)	–	61.4	7	90.5	17.7	37.3 µM	8.53	42.6 µM	32.6	31	47.2	–	73.6	–	–	–	–	–	–	–
C#CCNC(CCCN=C(N)N)C(=O)O (stereo not given)	> 100	> 100	> 100	> 100	> 100	> 100 µM	> 100	> 100 µM	–	–	> 100	> 100	> 100	–	–	–	–	–	–	–
CCOC(=O)CCC(NC(=O)OCc1ccccc1)C(=O)NC(CCC(=O)OCC)C(=O)NC(CCC(=O)OCC)C(=O)NC(CCC(=O)OCC)C(=O)NC(CCC(=O)OCC)C(=O)NC(Cc1ccc([N+](=O)[O-])cc1)C(=O)NC(CCC(=O)OCC)C(=O)NC(CCC(=O)OCC)C(=O)NC(CCC(=O)OCC)C(=O)NC(CCC(=O)OCC)C(=O)NC(CCC(=O)OCC)C(=O)OCC (stereo not given) (Cbz-E(OEt)E(OEt)E(OEt)E(OEt)E(OEt)[Phe(4-NO2)]E(OEt)E(OEt)E(OEt)E(OEt)E(OEt)-OEt; configuration not given here)	> 50	> 50	–	> 50	–	> 50 µM	> 50	> 50 µM	> 50	> 50	> 50	–	> 50	–	–	–	–	–	–	–
O=C(NC1C(=O)NC(CCc2ccccc2)NC1=O)OCc1ccccc1 (stereo not given)	> 100	> 100	> 100	> 100	> 100	> 100 µM	–	> 100 µM	> 100	> 100	> 100	> 100	> 100	–	–	–	–	–	–	–
Cc1cc(O)c(C(O)c2ccccn2)cc1O (stereo not given)	–	> 100	24.2	> 100	31.2	34.1 µM	> 100	> 100 µM	43.8	43.7	28.7	–	31.8	–	–	–	–	–	–	–
O=C1/C(=C/c2ccc([N+](=O)[O-])cc2)Oc2cc(O)ccc21	–	92.9	58.7	> 100	> 100	69.1 µM	47.9	46.9 µM	> 100	87.1	> 100	–	82.5	–	–	–	–	–	–	–
C=CCNC(=S)NC=C(C(N)=O)C(N)=O	89.2	> 100	> 100	> 100	> 100	> 100 µM	> 100	> 100 µM	> 100	> 100	> 100	–	–	–	–	–	–	–	–	–
COc1cc(CNc2ccc(C)cc2)cc(OC)c1OC	> 74.2	> 100	> 100	–	–	9.02 µM and > 37.2 µM	–	> 42.3 µM and 25 µM	–	> 87.6	> 100	> 100	> 100	> 37.5	0.235 µM and 0.0641 µM	0.333 µM and 0.816 µM	0.1 µM and 0.275 µM	0.585 µM and 3.71 µM	4.28	0.12 µM and 0.57 µM
CCCCCCCCC#CCCCCCCC(F)C(=O)O (stereo not given)	> 100	> 100	–	> 100	> 100	> 100 µM	> 100	> 100 µM	–	–	–	> 100	> 100	–	–	–	–	–	–	–
C1=C(c2ccccc2)NC2=N[C@H]3CCCC[C@@H]3N2C1c1ccccc1 (stereo not given in full)	30.2	–	29.6	29.6	20.2	23.5 µM	41.2	72.2 µM	–	–	28.6	25.2	22.1	–	–	–	–	–	–	–
CC(C)CC1C(=O)OC(C)(C)OC1=O	> 100	> 100	> 100	> 100	> 100	> 100 µM	> 100	> 100 µM	> 100	> 100	> 100	–	> 100	–	–	–	–	–	–	–
COc1cc(C(C)c2cc3c(cc2OCCCCCOc2cc4c(cc2C(C)c2cc(OC)c(OC)c(OC)c2)OCO4)OCO3)cc(OC)c1OC (stereo not given)	> 100	> 100	> 100	–	> 100	> 100 µM	–	> 100 µM	–	> 100	> 100	–	–	–	–	–	–	–	–	–
O=C(CC(=O)n1nc(-c2ccccc2)c(N=Nc2ccc([N+](=O)[O-])cc2)c1-c1ccccc1)Nc1ccc(Cl)cc1	–	56.3	99.3	–	> 100	–	–	17.8 µM	–	> 100	> 100	52.3	69.1	–	–	–	–	–	–	–
COc1c(O)ccc(/C=N/NC(=S)NCOCCOC(C)=O)c1OC	> 100	> 100	–	–	> 100	> 100 µM	–	> 100 µM	–	> 100	> 100	> 100	> 100	–	–	–	–	–	–	–
